Reference: article PMC3124137 (Experimental Diabetes Research, 2011)
Entries after “also recorded” stand apart in the source; their conditions may differ.

Tests used:
[1] = molecular target: T1, GLP-1 receptor at the coronary endothelium (Rattus norvegicus, UniProt P32301); experiment: Perfusion of rat heart with ^125I-GLP-1: binding at the coronary endothelium (buffer alone, CHAPS-untreated); set-up: species or system rat (male Sprague-Dawley)
T1 construct: from tissue; host or cells: in situ perfused heart of male Sprague-Dawley rats (normal, streptozotocin-diabetic and treated groups)
T1 sequence (P32301 22-463): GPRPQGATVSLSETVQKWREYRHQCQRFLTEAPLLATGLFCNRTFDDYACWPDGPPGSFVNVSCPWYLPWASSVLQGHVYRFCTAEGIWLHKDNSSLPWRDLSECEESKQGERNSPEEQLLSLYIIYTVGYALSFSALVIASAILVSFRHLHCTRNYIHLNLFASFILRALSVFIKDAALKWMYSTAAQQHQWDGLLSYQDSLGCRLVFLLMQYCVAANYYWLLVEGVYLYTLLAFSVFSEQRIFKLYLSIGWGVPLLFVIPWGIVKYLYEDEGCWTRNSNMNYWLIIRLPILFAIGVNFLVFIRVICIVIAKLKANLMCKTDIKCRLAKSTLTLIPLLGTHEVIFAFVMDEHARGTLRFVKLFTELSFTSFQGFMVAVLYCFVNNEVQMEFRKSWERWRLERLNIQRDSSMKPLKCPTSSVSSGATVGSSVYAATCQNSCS
Description: (§1) In addition, the left and right lungs were tied in order to block the blood flow to them and to other organs. The aorta was slightly cut, and a polyethylene catheter was inserted (from cephalad to caudad) into its lumen to reach the aortic valve. The right atrium was punctured, and another catheter was inserted to carry out the perfusate. Both catheters were secured with a suture. A 50 mL syringe filled with heparinized Ringer-Lock buffer containing 20 meq/L K ^+, oxygenated with 95% O2, 5% CO2 at 37°C linked to an infusion pump was attached to the inlet. This solution cleared the heart from blood and clots for 15 minutes; infusion of a Ringer-Lock buffer solution for another 15 minutes cleared the heart from heparin. These steps were followed by the perfusion of a buffer containing 8.25 × 10^−4 nM/L [^125I] […] The perfusate was collected for 20 minutes at specific time intervals (between 0-1, 1-2, 2-3, 3-4, 4-5, 5-6, 6-7, 7-8, 8-9, 9-10, 10–12, 12–15, 15–20 minutes); after each collection, 500 μL of the sample was put in a liquid scintillation vial containing 4 mL of Ecolume scintillation cocktail, which was later assayed for radioactivity by a liquid scintillation analyzer. […]

[2] = molecular target: T2, GLP-1 receptor at the cardiomyocytes (Rattus norvegicus, UniProt P32301); experiment: Perfusion of rat heart with ^125I-GLP-1: binding at the cardiomyocytes (CHAPS-treated); set-up: species or system rat (male Sprague-Dawley); settings: STZ-diabetic rats, one month of treatment, compared with diabetic (D) and normal (N)
T2 construct: from tissue; host or cells: in situ perfused heart of male Sprague-Dawley rats (normal, streptozotocin-diabetic and treated groups)
T2 sequence (P32301 22-463): T1 sequence (P32301 22-463)
Description: as §1

[3] = system: streptozotocin-induced type 1 diabetic rats; experiment: Blood glucose (Accu-Chek); assay type: in vivo, rat (male Sprague-Dawley); settings: STZ-diabetic rats; for effect of treatment on blood glucose level: one month of treatment, N = 24, P < .05 significant
Description: (§2) Groups D, DI, DE, DA, DIA and DEA were induced to type 1 diabetes mellitus by a single intravenous injection of streptozotocin (STZ; 85 mg/kg bw) (Sigma Chemical Co., Saint Louis, Mo, USA) in saline acidified to pH 4.5 with 0.1 M citrate buffer. Three days later, nonfasting blood glucose level was measured using Accu-Chek (Accu-Chek Instant Test; Roche Diagnostics GmbH, Mannheim, Germany); a level of ≥250 mg/dL confirmed type 1 diabetes mellitus.
(§3) All the animals were weighed weekly, and blood glucose levels were determined using Accu-Chek (Accu-Chek instant test, Roche Diagnostics GmbH, Mannheim, Germany) weekly during one month of treatment.

[4] = Plasma active GLP-1 (ELISA); assay type: in vivo, rat (male Sprague-Dawley); settings: STZ-diabetic rats; active GLP-1 (7–36 and 7–37) by ELISA over one month, N = 6
Description: as §2
Rats were anesthetized, and blood was collected from the sublingual vein on days 1, 7, 14, 21, and 28 of the treatment period, at a constant time range of 9 to 10 AM. […] A relative fluorescent unit (RFU) curve was plotted using these standards (Figure 1).

type 2 diabetic mice = settings: cited from earlier work
[5] = system: left ventricular hypertrophy; settings: compared with angiotensin receptor blockers; cited from earlier work
Excerpt: Diabetes mellitus currently affects more than 170 million individuals worldwide. Other than hyperglycemia, diabetes mellitus can cause a 2-3-fold increase in the occurrence of cardiovascular disease (CVD). […] Receptor signaling on the pancreas leads to enhanced insulin biosynth ...

[6] = system: nitric oxide synthase production by endothelial cells; settings: ref 28 (Dong et al.); cited from earlier work
Excerpt: (§4) Furthermore, this effect was eliminated upon the removal of the endothelial lining.

[7] = Body weight after one month of treatment; assay type: in vivo, rat (male Sprague-Dawley); settings: STZ-diabetic rats, N = 24
Description: as §2, §3

[8] = in vivo; cited from earlier work
Excerpt: The intravenous injection of streptozotocin (STZ)—a glucosamine-nitrosourea antibiotic with structural similarity to glucose that is readily taken up by the pancreatic β cells—causes β cells toxicity and ultimately necrosis, leading to deficiency in insulin secretion. The use of Streptozotocin to induce type 1 diabetes in rats is advantageous, because it is easy, fast, and the effect of diabetes on the heart can be evaluated. Our aim was to assess the long-term effects of treatments on ...

[9] = system: GLP-1 receptors on the human coronary endothelial cells; set-up: method as in earlier work; settings: ref 27 (Nystrom et al.); cited from earlier work
[10] = in vivo; cited from earlier work; remark: listed apart in the source
Excerpt: Incretin mimetics have been introduced in the market to be used as therapies for diabetes mellitus [[2 ...

[11] = cited from earlier work
Excerpt: as §4

With `COCCCOc1cc(C[C@@H](C[C@H](N)[C@@H](O)C[C@H](C(=O)NCC(C)(C)C(N)=O)C(C)C)C(C)C)ccc1OC` [Aliskiren] the “effect of treatment on GLP-1 binding affinity (τ) at the coronary endothelium” value ([1]; STZ-diabetic rats, one month of treatment, compared with diabetic (D) and normal (N)) was “did not alter τ from diabetics in the CE; also recorded: no significant change in its affinity; also recorded: did not ameliorate it”, the “effect of treatment on K d of GLP-1 at the coronary endothelium” value ([1]; treated STZ-diabetic rats compared to the normal) was “extremely significant increase in K d constant” and the “effect of treatment on GLP-1 binding affinity (τ) at the cardiomyocytes” value [2] was “did not lower the affinity”. For the same compound, the “fraction of treated rats with normal blood glucose levels” value ([3]; Aliskiren 50 mg/kg oral qd, after one month) was 12.5%, the “effect of treatment on blood glucose level” value [3] was “significantly decreased blood glucose levels compared to the untreated” and the “effect of treatment on plasma GLP-1 level” value [4] was “normalized”. For the same compound, the insulin sensitivity (type 2 diabetic mice) was “improves insulin sensitivity”, the left ventricular hypertrophy [5] was “reduce left ventricular hypertrophy as efficiently as angiotensin receptor blockers (ARBs)” and the “nitric oxide synthase production by endothelial cells” value [6] was “significantly restored”.
For “Exendin-4: GLP-1 analogue, GLP-1 receptor agonist (Sigma); group DE, 0.03 μg/kg ip bid”, the “body weight vs diabetic untreated” value [7] was “significant increase in their body weight”, the “effect of treatment on blood glucose level” value [3] was “Although not significant, Exendin-4 treatment showed slight improvement” and the “effect of treatment on plasma GLP-1 level” value [4] was “normalized”.
In the case of Insulin glargine, the duration of action [8] is given as less than 24 h.
In the case of glucagon-like peptide-1 [GLP-1], the “vasodilation on binding to GLP-1 receptors” value [9] is given as “induce vasodilation”, the physiologic half-life [10] is given as “very short physiologic half-life” and the “vasodilation on GLP-1 infusion” value [11] is given as “induce vasodilation”.
